Measured values as given in ChEMBL document CHEMBL1201862, “PubChem BioAssay data set” (2004).
Several values for one entry are separate records, joined by “and”; a condition that tells them apart may be missing. Equal values may be shown once. Activity calls are given as the source filed them.

Experiments:
[1] = target: T1, Estrogen receptor beta (Homo sapiens, UniProt Q92731);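 further: recombinant ER-beta bound to coactivator SRC1 peptide in presence of estradiol agonist; inhibitors block coactivator peptide binding and lower the FRET signal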
[2] = target: T1, Estrogen receptor beta; test: blockers of SRC-3 recruitment to ERβ – biochemical, ELISA, streptavidin-HRP readout, orthogonal assay, confirmation (AID 1060)
[3] = target: Estrogen receptor (Homo sapiens, UniProt P03372);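 further: potency for inhibiting coactivator peptide recruitment to the receptor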
[4] = target: Epstein-Barr nuclear antigen 1 (Epstein-Barr virus (strain B95-8) (HHV-4) (Human herpesvirus 4), UniProt P03211); test: inhibition of EBV nuclear antigen 1 DNA binding – biochemical, fluorescence polarization, 1536-well, dose response (AID 2381); design: species or system human gammaherpesvirus 4;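 further: fluorescence polarization of a Cy5 DNA probe bound by EBNA-1 protein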
[5] = target: Lytic switch protein BZLF1 (Epstein-Barr virus (strain B95-8) (HHV-4) (Human herpesvirus 4), UniProt P03206); test: inhibition of BZLF1 ZTA DNA binding – biochemical, fluorescence polarization, Epstein-Barr virus, 1536-well, counter-screen for EBNA-1 inhibitor project, dose response (AID 2377); design: species or system human gammaherpesvirus 4;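 further: fluorescence polarization of Cy5-labelled ZRE DNA probe bound by purified Zta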
[6] = target: T2, Bcl-2-related protein A1 (Mus musculus, UniProt Q07440); test: small-molecule antagonists of Bfl-1/BH3 interaction – biochemical, TR-FRET, mouse Bfl-1, confirmation (AID 621);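 further: TR-FRET binding of GST-Bfl-1 to FITC-labelled Bid peptide via terbium antibody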
T2 sequence (Q07440 whole entry): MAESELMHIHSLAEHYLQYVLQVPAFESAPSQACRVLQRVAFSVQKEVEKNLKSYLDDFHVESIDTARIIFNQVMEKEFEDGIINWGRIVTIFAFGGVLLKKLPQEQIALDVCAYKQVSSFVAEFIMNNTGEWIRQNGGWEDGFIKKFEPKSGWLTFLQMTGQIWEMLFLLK

[7] = target: T2, Bcl-2-related protein A1; test: Bfl-1 binding inhibitors, SAR follow-up, biochemical, fluorescence polarization (AID 1070)
[8] = target: T3, Carboxy-terminal domain RNA polymerase II polypeptide A small phosphatase 1 (Homo sapiens, UniProt Q9GZU7); test: CTDSP1 inhibitors, concentration-response, biochemical, absorbance readout, ultra-high-throughput screen actives (AID 540297); type: functional
T3 sequence (Q9GZU7 whole entry): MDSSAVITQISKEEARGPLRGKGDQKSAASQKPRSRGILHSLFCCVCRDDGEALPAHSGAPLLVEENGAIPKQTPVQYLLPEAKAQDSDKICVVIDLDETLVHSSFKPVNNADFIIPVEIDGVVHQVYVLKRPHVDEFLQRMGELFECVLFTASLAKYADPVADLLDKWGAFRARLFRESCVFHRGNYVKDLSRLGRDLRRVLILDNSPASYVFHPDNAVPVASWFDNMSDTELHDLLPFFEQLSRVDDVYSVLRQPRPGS

[9] = target: T4, Galanin receptor type 3 (Homo sapiens, UniProt O60755); test: Fluorescence-based cell-based primary high throughput dose response assay to identify antagonists of the Galanin Receptor 3 (GalR3).; type: functional
T4 sequence (O60755 whole entry): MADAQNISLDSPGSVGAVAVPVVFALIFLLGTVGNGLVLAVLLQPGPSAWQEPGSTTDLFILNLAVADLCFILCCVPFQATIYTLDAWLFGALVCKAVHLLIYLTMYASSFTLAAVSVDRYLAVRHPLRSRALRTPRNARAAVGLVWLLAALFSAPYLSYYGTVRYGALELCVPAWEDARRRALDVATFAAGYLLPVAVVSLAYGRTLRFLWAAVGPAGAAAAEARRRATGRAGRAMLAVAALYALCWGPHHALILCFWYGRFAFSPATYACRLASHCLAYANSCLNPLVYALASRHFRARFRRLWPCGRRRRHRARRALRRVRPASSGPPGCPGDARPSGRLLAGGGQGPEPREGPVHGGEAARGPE

[10] = cells; type: functional, cell-based; conditions: HEK-CNG
[11] = target: Peroxisome proliferator-activated receptor gamma/Nuclear receptor coactivator 2 (Homo sapiens, UniProt P37231); type: functional;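 further: agonist potency for raising coactivator recruitment to the receptor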
[12] = target: Peroxisome proliferator-activated receptor gamma/Nuclear receptor coactivator 1 (Homo sapiens, UniProt P37231); type: functional;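 further: agonist potency as compounds enhance coactivator SRC-1 recruitment to PPARgamma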
[13] = target: Peroxisome proliferator-activated receptor gamma/Nuclear receptor coactivator 3 (Homo sapiens, UniProt P37231); type: functional;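 further: agonist potency for raising coactivator recruitment to the receptor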
[14] = system: BJ; test: BJ-TERT fibroblast viability loss – cell-based, RAS-independent, luminescence, dose response (AID 1933); type: functional; conditions: Homo sapiens
[15] = system: BJ; test: cells; type: functional, cell-based; conditions: Homo sapiens
[16] = target: Protein-tyrosine kinase 2-beta (Homo sapiens, UniProt Q14289);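 further: potency of inhibitors of PYK2 kinase phosphorylation of poly-GT substrate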
[17] = system: BJ; test: BJ-TERT-LT-ST fibroblast viability loss – cell-based, RAS-independent, luminescence, dose response (AID 1935); type: functional; conditions: Homo sapiens;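 further: BJ fibroblasts immortalized with TERT plus LT and ST oncogenes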
[18] = DRD fibroblast viability loss – cell-based, non-viral oncogenic, luminescence, dose response (AID 1934); type: functional; conditions: Homo sapiens
[19] = target: T5, Tyrosine-protein phosphatase non-receptor type 11 (Homo sapiens, UniProt Q06124); test: PTPN11 enzyme inhibitors – biochemical, selectivity assay for STEP inhibitor project, dose response (AID 602367); type: functional; conditions: read-out: IC50_Mean
T5 sequence (Q06124 whole entry): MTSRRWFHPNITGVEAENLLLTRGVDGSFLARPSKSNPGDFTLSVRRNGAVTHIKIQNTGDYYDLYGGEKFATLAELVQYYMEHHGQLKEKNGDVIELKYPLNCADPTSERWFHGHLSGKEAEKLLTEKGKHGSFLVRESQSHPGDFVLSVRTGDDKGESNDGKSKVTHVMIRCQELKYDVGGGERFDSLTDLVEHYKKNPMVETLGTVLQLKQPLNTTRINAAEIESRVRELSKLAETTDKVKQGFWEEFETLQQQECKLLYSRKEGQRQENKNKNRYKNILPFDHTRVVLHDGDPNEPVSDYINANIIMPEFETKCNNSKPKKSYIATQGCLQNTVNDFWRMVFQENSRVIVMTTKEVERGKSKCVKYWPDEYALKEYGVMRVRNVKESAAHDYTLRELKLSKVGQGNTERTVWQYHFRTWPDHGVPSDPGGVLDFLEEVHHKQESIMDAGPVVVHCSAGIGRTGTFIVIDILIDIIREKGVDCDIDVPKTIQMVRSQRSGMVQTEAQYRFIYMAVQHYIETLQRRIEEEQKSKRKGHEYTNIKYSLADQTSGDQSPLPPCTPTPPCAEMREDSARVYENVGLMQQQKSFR

[20] = target: Melanocortin receptor 4 (Homo sapiens, UniProt P32245); type: functional, cell-based;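 further: Cell-based assay with luminescence read-out, confirmatory dose-response testing for agonist activity of biased ligands at MC4R; human U2OS cells with tagged receptor and beta-arrestin; potency of agonists that increase receptor coupling to beta-arrestin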
[21] = target: T6, Tyrosine-protein phosphatase non-receptor type 5 (Homo sapiens, UniProt P54829); test: PTPN5 enzyme inhibition – biochemical, fluorescence intensity, uHTS hits, confirmation (AID 602372); type: functional; conditions: read-out: IC50_Mean
T6 sequence (P54829 whole entry): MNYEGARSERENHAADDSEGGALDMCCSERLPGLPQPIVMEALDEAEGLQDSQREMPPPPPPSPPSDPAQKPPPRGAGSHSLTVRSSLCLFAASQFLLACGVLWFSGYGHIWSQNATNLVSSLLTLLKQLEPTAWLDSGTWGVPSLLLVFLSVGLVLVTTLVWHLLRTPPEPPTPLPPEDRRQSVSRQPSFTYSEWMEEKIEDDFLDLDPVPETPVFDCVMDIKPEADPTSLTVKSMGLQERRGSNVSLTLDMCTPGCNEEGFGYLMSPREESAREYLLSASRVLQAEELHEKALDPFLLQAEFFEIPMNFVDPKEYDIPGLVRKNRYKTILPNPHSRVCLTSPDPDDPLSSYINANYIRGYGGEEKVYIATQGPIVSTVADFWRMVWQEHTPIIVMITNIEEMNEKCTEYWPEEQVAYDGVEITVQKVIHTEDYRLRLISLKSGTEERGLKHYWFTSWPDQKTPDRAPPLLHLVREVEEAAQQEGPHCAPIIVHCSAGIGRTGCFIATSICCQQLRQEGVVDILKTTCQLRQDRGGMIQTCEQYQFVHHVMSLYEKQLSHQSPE

[22] = target: Dual specificity protein phosphatase 3 (Homo sapiens, UniProt P51452); test: VHR phosphatase inhibition, dose response, selectivity assay for STEP inhibitor project, biochemical (AID 602374); type: functional; conditions: read-out: IC50_Mean
[23] = target: Glyceraldehyde-3-phosphate dehydrogenase (Homo sapiens, UniProt P04406)
[24] = fluconazole-exposed Candida albicans growth modulators – fluorescence, retest, confirmation (AID 2467); type: functional, cell-based
[25] = Trypanosoma cruzi growth suppression in host cells – NIH3T3 host cells, beta-gal luminescence, confirmation (AID 2044); type: functional, cell-based;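 further: intracellular parasites grown in NIH/3T3 mouse fibroblasts as host cells; luminescent beta-galactosidase reporter signal from transgenic T. cruzi replicating inside host cells; inhibitors lower the luminescence signal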
[26] = NIH3T3 cell viability loss – ATP luminescence, mouse fibroblasts, counter-screen, dose response (AID 2010); type: functional, cell-based;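 further: cells exposed to compound for about 90 hours before reading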
[27] = target: T7, Ubiquitin-conjugating enzyme E2 N (Homo sapiens, UniProt P61088); type: functional;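 further: Dose-response confirmation in a TR-FRET assay detecting UBC13-driven polyubiquitin chain formation, inhibition measured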
T7 sequence (P61088 whole entry): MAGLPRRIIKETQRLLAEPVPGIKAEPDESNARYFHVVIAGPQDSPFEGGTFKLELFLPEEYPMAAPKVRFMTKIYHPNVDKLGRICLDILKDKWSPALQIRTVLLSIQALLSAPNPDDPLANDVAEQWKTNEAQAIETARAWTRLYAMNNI

[28] = target: T8, Microphthalmia-associated transcription factor (Homo sapiens, UniProt O75030); test: reducers of TRPM1 reporter luminescence, concentration series – cell-based, SK-MEL-5, cherry-picked, set 3, MITF inhibitor project, dose response (AID 493073); type: functional;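 further: SK-MEL-5 melanoma cells with luciferase driven by the MITF target TRPM1 promoter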
T8 sequence (O75030 whole entry): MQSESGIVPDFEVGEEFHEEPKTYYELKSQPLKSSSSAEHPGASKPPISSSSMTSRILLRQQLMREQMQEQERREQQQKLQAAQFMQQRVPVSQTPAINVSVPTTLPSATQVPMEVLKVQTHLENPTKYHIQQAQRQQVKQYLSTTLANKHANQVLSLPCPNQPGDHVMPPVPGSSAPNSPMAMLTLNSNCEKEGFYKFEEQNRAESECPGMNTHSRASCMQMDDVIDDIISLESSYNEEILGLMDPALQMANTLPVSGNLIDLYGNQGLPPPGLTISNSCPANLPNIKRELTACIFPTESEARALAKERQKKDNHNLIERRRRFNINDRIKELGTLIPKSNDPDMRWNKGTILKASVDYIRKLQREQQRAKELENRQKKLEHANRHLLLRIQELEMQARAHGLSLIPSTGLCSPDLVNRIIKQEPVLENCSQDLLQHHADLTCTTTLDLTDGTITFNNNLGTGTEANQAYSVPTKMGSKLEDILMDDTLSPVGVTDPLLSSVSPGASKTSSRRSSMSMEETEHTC

[29] = system: A-375; test: MITF: Counter assay: A375 proliferation Measured in Cell-Based System Using Plate Reader - 2084-03_Inhibitor_Dose_DryPowder_Activity. [Related pubchem assays (depositor defined):AID488944]; type: functional; conditions: Homo sapiens
[30] = system: INS1; test: INS-1E survival protection against cytokine death – cell-based, luminescence, retest, dose response (AID 449756); type: functional;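 further: cell death triggered by IL-1 beta plus TNF-alpha plus IFN-gamma mixture; protective hits raise ATP signal compared with cytokine alone wells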
[31] = cells

T1 sequence (Q92731 whole entry): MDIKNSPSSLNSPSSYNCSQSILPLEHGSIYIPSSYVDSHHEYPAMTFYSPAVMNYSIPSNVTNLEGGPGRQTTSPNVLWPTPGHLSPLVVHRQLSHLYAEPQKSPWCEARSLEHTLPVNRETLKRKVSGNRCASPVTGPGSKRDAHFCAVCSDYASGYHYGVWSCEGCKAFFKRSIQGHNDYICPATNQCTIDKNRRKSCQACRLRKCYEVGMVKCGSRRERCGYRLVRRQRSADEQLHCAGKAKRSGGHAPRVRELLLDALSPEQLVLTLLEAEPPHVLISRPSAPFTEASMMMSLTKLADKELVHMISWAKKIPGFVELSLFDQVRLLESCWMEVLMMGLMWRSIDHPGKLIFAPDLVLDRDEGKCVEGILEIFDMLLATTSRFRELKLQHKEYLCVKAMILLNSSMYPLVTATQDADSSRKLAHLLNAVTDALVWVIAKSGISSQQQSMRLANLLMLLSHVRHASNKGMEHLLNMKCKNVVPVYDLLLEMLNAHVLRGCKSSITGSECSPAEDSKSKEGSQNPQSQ
Sequence of Estrogen receptor (P03372 whole entry): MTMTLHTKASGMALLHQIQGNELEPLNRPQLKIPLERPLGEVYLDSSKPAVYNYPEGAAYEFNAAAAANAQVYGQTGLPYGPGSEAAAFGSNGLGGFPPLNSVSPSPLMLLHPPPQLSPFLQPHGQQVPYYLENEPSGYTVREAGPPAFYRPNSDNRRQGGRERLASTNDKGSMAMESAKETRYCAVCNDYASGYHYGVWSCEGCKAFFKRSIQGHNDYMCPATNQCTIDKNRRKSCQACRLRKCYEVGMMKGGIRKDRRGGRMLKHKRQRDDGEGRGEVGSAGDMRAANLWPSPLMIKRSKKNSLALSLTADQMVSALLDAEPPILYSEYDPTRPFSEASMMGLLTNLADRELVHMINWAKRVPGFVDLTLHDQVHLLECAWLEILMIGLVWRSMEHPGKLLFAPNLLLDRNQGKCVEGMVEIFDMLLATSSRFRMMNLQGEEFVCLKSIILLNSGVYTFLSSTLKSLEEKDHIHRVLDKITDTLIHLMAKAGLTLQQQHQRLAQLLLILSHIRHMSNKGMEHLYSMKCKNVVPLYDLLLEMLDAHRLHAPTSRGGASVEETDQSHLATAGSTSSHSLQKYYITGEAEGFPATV
Sequence of Epstein-Barr nuclear antigen 1 (P03211 whole entry): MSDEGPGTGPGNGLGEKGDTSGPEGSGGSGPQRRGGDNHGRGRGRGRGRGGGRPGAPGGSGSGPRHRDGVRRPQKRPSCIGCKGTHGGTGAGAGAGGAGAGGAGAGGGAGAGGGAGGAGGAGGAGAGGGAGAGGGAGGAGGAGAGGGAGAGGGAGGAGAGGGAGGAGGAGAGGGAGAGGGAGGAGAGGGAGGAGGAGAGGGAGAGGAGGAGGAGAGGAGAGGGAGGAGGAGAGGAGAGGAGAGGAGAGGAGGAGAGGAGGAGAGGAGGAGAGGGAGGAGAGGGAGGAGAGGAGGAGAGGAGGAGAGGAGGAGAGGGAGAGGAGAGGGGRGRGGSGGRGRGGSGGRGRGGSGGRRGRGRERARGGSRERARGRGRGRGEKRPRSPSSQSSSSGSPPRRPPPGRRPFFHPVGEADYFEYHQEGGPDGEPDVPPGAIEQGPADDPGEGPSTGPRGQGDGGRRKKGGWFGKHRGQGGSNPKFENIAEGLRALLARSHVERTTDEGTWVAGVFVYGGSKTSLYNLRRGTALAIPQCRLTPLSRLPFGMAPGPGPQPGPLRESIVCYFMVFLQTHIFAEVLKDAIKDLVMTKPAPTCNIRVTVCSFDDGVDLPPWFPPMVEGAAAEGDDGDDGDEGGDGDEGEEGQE
Sequence of Protein-tyrosine kinase 2-beta (Q14289 whole entry): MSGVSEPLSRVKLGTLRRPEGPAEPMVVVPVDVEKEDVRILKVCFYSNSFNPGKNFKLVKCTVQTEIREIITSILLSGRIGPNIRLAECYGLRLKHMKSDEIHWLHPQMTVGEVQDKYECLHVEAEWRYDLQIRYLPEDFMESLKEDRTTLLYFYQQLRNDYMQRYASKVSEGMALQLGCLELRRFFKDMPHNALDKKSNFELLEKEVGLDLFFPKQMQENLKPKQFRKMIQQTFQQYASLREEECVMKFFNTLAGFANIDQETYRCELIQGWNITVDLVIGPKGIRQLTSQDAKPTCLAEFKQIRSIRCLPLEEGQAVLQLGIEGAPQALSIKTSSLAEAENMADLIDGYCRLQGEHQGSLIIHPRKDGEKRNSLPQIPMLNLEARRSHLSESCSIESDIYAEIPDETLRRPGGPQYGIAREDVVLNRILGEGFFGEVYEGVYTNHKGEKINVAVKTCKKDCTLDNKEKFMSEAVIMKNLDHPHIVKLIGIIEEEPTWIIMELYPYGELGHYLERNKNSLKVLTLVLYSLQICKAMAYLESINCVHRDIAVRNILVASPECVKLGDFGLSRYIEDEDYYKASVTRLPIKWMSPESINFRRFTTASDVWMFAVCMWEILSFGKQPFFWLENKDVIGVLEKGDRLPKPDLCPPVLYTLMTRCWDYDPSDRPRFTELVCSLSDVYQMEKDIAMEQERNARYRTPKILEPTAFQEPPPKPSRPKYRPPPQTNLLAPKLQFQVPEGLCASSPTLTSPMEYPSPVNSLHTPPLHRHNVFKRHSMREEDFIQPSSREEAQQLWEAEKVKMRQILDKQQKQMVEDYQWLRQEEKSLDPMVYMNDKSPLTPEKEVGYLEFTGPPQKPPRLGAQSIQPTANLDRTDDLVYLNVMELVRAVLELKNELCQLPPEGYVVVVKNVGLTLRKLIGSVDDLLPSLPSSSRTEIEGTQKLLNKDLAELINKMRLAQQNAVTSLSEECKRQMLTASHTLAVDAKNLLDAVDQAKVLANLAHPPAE
Sequence of Lytic switch protein BZLF1 (P03206 whole entry): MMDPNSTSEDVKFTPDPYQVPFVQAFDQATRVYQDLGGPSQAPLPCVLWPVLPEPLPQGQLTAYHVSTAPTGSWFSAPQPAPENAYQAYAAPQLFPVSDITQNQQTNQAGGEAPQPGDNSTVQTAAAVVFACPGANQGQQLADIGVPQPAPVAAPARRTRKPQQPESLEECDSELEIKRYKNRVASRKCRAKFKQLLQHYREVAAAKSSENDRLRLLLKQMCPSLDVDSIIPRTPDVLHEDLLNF
Sequence of Dual specificity protein phosphatase 3 (P51452 whole entry): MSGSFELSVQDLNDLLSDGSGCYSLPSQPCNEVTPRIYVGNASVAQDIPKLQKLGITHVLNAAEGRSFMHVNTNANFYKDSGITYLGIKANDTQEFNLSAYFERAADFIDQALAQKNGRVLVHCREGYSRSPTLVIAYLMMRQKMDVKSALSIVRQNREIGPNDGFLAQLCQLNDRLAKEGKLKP
Sequence of Glyceraldehyde-3-phosphate dehydrogenase (P04406 whole entry): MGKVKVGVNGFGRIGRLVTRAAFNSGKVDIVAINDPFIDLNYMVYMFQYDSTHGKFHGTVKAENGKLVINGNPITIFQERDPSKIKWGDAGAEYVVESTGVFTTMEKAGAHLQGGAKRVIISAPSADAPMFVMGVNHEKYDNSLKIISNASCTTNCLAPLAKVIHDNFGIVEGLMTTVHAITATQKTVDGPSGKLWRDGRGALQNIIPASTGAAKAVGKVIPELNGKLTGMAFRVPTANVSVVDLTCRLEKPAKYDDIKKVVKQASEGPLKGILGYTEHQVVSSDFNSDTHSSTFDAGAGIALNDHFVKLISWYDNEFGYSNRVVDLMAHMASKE
Sequence of Melanocortin receptor 4 (P32245 whole entry): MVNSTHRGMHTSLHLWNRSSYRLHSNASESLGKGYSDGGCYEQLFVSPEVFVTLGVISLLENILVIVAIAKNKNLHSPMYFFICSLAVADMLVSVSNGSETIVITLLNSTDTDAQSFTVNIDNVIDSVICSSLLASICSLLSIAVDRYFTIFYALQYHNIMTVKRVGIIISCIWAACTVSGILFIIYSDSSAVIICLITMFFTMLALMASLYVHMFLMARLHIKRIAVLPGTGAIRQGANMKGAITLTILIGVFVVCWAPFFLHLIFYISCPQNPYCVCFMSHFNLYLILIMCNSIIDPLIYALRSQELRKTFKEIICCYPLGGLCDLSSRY

With Cc1ccc(S(=O)(=O)Cc2ccc(C(=O)N3CCN(Cc4ccccc4)CC3)o2)cc1 the IC50 [1] was 8.83 µM (active) and the IC50 [2] was 19.2 µM (not active).
With NC(=O)c1ccc(F)cc1 the IC50 [3] was > 50 µM (not active).
For CCOc1ccc(NC(=O)C(=O)N/N=C\c2ccc(CNS(=O)(=O)c3ccccc3)o2)cc1, the IC50 [4] was 7.23 µM (active) and the IC50 [5] was > 111 µM (not active).
For COc1ncccc1-c1nnn(-c2ccccc2)n1, the IC50 [6] was > 100 µM (not active) and the IC50 [7] was > 100 µM (not active).
For O=c1cc(CSc2nnc(-c3cccs3)n2Cc2ccccc2)nc2sc3ccccc3n12, the IC50 [1] was < 1.56 µM (active), the IC50 [2] was 19.3 µM (not active) and the IC50 [8] was 5.42 µM (active). The IC50 [9] was 0.482 µM (active) and the EC50 [10] was > 29.9 µM (inactive).
With COc1ccc(-n2nc(C(=O)NCC(=O)Nc3ccccn3)c3ccccc3c2=O)cc1Cl the EC50 [11] was 19.2 µM (not active), the EC50 [12] was 25.8 µM (not active) and the EC50 [13] was 37.7 µM (not active). The EC50 [14] was 31.5 µM (active), the EC50 [15] was 21.6 µM (active) and the IC50 [16] was > 69.5 µM (not active). The EC50 [17] was > 150 µM (not active), the EC50 [18] was 28.5 µM (active) and the IC50 [19] was 1.98 µM (active). For the same compound, the EC50 [20] was > 89.2 µM (inactive), the IC50 [21] was 42.3 µM (inactive) and the IC50 [22] was 3.14 µM (active).
With COc1ccc(C2C=C(c3ccc(Cl)cc3)Nc3nc(NC(C)=O)nn32)cc1 (stereo not given) the IC50 [3] was 21.9 µM (active).
For CN1CCN(C2CC(=O)N(c3ccc(Cl)c(Cl)c3)C2=O)CC1 (stereo not given), the IC50 [23] was > 100 µM (not active), the IC50 [6] was > 100 µM (not active) and the IC50 [7] was > 100 µM (not active).
In the case of c1cc2ccc3ccc(CN4CCOCC4)c4ccc(c1)c2c34, the IC50 [16] is reported as > 69.5 µM (not active).
In the case of CC1CCC(C(C)C)C(OC(=O)Cn2c(-c3ccc(Br)cc3)[n+](C)c3ccccc32)C1 (stereo not given), the EC50 [24] is reported as 227 nM (active) and 290 nM (active), the EC50 [25] is reported as < 0.1 µM (active) and the EC50 [26] is reported as > 60 µM (not active). The IC50 [27] was > 20 µM (inactive), the AC50 [28] was 7.12 µM (active) and the AC50 [29] was 36.8 µM (active). The AC50 ([30]; Rattus norvegicus, INS1) was 3.63 µM (active), the AC50 ([30]; ins1) was 2.8 µM (active) and the EC50 [31] was 0.409 µM (active).
In the case of O=C(Cn1nnc(-c2ccccc2NC(=O)c2ccccc2)n1)Nc1ccc2c(c1)OCCO2, the IC50 [4] is reported as 16.4 µM (not active) and the IC50 [5] is reported as > 111 µM (not active).
